Results from patent publication US9701664B2, “Fused 1,4-dihydrodioxin derivatives as inhibitors of heat shock transcription factor 1” (Cancer Research Technology Limited, priority 2013, dated 2017).
pIC50: −log10 of the molar value. Read-outs that look alike come from different tables or passages of the source.

How the values were obtained:
[1] = system: HSP72 in SK-OV-3 cells; test: Cell-based ELISA (Cellisa) assay, SK-OV-3 cells: inhibition of 17-AAG-induced HSP72; conditions: SK-OV-3 cells (Examples 169-218)
Procedure: U2OS cells (5-8×10^4 cells/mL) or SK-OV-3 cells (5-8×10^4 cells/mL) were seeded into 96-well plates and incubated at 37° C. for 48 h. Compounds were then added at a range of concentrations and incubated for 1 h before addition of 17-AAG (250 nM). Cells were then incubated for 18 h. The medium was removed washed 2× with PBS and cells were then fixed with fixing solution (4% paraformaldehyde, 0.3% TritonX-100 in PBS) for 30 min at 4° C. The plates were then washed 2× with PBS before blocking with 5% milk for 30 min at 37° C. After washing the plates 4× with 0.1% Tween-20/deionised water, HSP72 antibody (SPA-810, Enzo Life) was added for 1.5 h at 37° C. Following 4× washes, the plates were incubated with europium-labelled anti-mouse antibody (0.6 ug/ml) in Delfia assay buffer (Perkin Elmer) for 1 h at 37° C. After washing the plates, Delfia enhancement solution was added, shaken for 10 min before reading in the Envision plate reader (Perkin-Elmer) with excitation at 340 nm and emission at 615 nm. The plates were washed again before protein determination using the bicinchoninic acid assay (BCA assay, Pierce Biotechnology). The europium counts were normalised for the amount of protein in each well. The 50% inhibitory concentration value of the compound was then calculated.

[2] = system: HSP72 in U2OS cells; test: Cell-based ELISA (Cellisa) assay, U2OS cells: inhibition of 17-AAG-induced HSP72; conditions: U2OS cells (Examples 1-168)
[3] = system: U2OS cells; test: Titre Blue cell viability assay, U2OS cells; assay type: cell-based

Compound	pIC50 ([1]; Homo sapiens)	pIC50 ([2]; Homo sapiens)	pIC50 ([3]; Homo sapiens, U2OS)	other results
O=C(Nc1ccc(F)c(NC(=O)c2ccc3nc(OCCCN4CCCC4)ccc3c2)c1)c1ccc2c(c1)OCCO2 [Example 187, N-(5-(2,3-dihydrobenzo[b][1,4]dioxine-6-carboxamido)-2-fluorophenyl)-2-(3-(pyrrolidin-1-yl)propoxy)quinoline-6-carboxamide]	8.00	–	–	–
O=C(Nc1ccc(Cl)c(NC(=O)c2ccc3nc(OCCN4CCCC4)ccc3c2)c1)c1ccc2c(c1)OCCO2 [Example 211, N-(2-chloro-5-(2,3-dihydrobenzo[b][1,4]dioxine-6-carboxamido)phenyl)-2-(2-(pyrrolidin-1-yl)ethoxy)quinoline-6-carboxamide]	7.14	–	–	–
CC(C)N1CCN(Cc2ccc3cc(C(=O)Nc4cc(NC(=O)c5ccc6c(c5)OCCO6)ccc4F)ccc3n2)[C@@H](C)C1 [Example 217, (S)—N-(5-(2,3-dihydrobenzo[b][1,4]dioxine-6-carboxamido)-2-fluorophenyl)-2-((4-isopropyl-2-methylpiperazin-1-yl)methyl)quinoline-6-carboxamide]	6.86	–	–	–
CN1CCN(Cc2ccc3cc(C(=O)Nc4cc(NC(=O)c5ccc6c(c5)OCCO6)ccc4Cl)ccc3n2)CC1 [Example 195, N-(2-chloro-5-(2,3-dihydrobenzo[b][1,4]dioxine-6-carboxamido)phenyl)-2-((4-methylpiperazin-1-yl)methyl)quinoline-6-carboxamide]	7.18	–	–	–
Cc1ccc(NC(=O)c2ccc3c(c2)OCCO3)cc1NC(=O)c1ccc2nc(CN3CCN(C(C)C)CC3)ccc2c1 [Example 202, N-(5-(2,3-dihydrobenzo[b][1,4]dioxine-6-carboxamido)-2-methylphenyl)-2-((4-isopropylpiperazin-1-yl)methyl)quinoline-6-carboxamide]	7.21	–	–	–
CCN1CCN(Cc2ccc3cc(C(=O)Nc4cc(NC(=O)c5ccc6c(c5)OCCO6)ccc4Cl)ccc3n2)CC1 [Example 196, N-(2-chloro-5-(2,3-dihydrobenzo[b][1,4]dioxine-6-carboxamido)phenyl)-2-((4-ethylpiperazin-1-yl)methyl)quinoline-6-carboxamide]	7.32	–	–	–
O=C(Nc1ccc(Cl)c(NC(=O)c2ccc3nc(CN4CCNCC4)ccc3c2)c1)c1ccc2c(c1)OCCO2 [Example 192, N-(2-chloro-5-(2,3-dihydrobenzo[b][1,4]dioxine-6-carboxamido)phenyl)-2-(piperazin-1-ylmethyl)quinoline-6-carboxamide]	6.89	–	–	–
CC(C)(C)N1CCN(Cc2ccc3cc(C(=O)Nc4cc(NC(=O)c5ccc6c(c5)OCCO6)ccc4Cl)ccc3n2)CC1 [Example 191, 2-((4-(tert-butyl)piperazin-1-yl)methyl)-N-(2-chloro-5-(2,3 dihydrobenzo[b][1,4]dioxine-6-carboxamido)phenyl)quinoline-6-carboxamide]	6.87	–	–	–
C[C@H]1CCCN1Cc1ccc2cc(C(=O)Nc3cc(NC(=O)c4ccc5c(c4)OCCO5)ccc3F)ccc2n1 [Example 175, (S)—N-(5-(2,3-dihydrobenzo[b][1,4]dioxine-6-carboxamido)-2-fluorophenyl)-2-((2-methylpyrrolidin-1-yl)methyl)quinoline-6-carboxamide]	6.19	–	–	–
2-((4-(tert-butyl)piperazin-111)methyl)-N-(5-(2,3-dihydrobenzo[b][1,4]dioxine-6-carboxamido)-2-fluorophenyl)quinoline-6-carboxamide [Example 177]	–	–	–	pIC50 [1]: 7.15
CC(C)N1CCN(Cc2ccc3cc(C(=O)Nc4cc(NC(=O)c5ccc6c(c5)OCCO6)ccc4Cl)ccc3n2)CC1 [Example 197, N-(2-chloro-5-(2,3-dihydrobenzo[b][1,4]dioxine-6-carboxamido)phenyl)-2-((4-isopropylpiperazin-1-yl)methyl)quinoline-6-carboxamide]	7.37	–	–	–
Cc1ccc(NC(=O)c2ccc3c(c2)OCCO3)cc1NC(=O)c1ccc2nc(CN3CC[C@@H](F)C3)ccc2c1 [Example 206, (R)—N-(5-(2,3-dihydrobenzo[b][1,4]dioxine-6-carboxamido)-2-methylphenyl)-2-((3-fluoropyrrolidin-1-yl)methyl)quinoline-6-carboxamide]	7.12	–	–	–
O=C(Nc1ccc(F)c(NC(=O)c2ccc3nc(CN4CCC4)ccc3c2)c1)c1ccc2c(c1)OCCO2 [Example 171, 2-(azetidin-1-ylmethyl)-N-(5-(2,3-dihydrobenzo[b][1,4]dioxine-6-carboxamido)-2-fluorophenyl)quinoline-6-carboxamide]	6.35	–	–	–
O=C(Nc1ccc(Cl)c(NC(=O)c2ccc3nc(OCCCN4CCCCC4)ccc3c2)c1)c1ccc2c(c1)OCCO2 [Example 189, N-(2-chloro-5-(2,3-dihydrobenzo[b][1,4]dioxine-6-carboxamido)phenyl)-2-(3-(piperidin-1-yl)propoxy)quinoline-6-carboxamide]	7.57	–	–	–
CCN1CCN(Cc2ccc3cc(C(=O)Nc4cc(NC(=O)c5ccc6c(c5)OCCO6)ccc4F)ccc3n2)CC1 [Example 169, N-(5-(2,3-dihydrobenzo[b][1,4]dioxine-6-carboxamido)-2-fluorophenyl)-2-((4-ethylpiperazin-1-yl)methyl)quinoline-6-carboxamide]	7.25	–	–	–
tert-butyl (44(64(5-(2,3-dihydrobenzo[b][1,4]dioxine-6-carboxamido)-2-methylphenyl)carbamoyl)quinolin-2-yl)oxy)butyl)carbamate [Example 164]	–	–	–	pIC50 [2]: 5.81; pIC50 [3]: 6.07
O=C(Nc1ccc(Br)c(NC(=O)c2ccc3nc(OCCN4CCCC4)ccc3c2)c1)c1ccc2c(c1)OCCO2 [Example 139, N-(2-bromo-5-(2,3-dihydrobenzo[b][1,4]dioxine-6-carboxamido)phenyl)-2-(2-(pyrrolidin-1-yl)ethoxy)quinoline-6-carboxamide]	–	7.70	7.64	–
Cc1ccc(NC(=O)c2ccc3c(c2)OCCO3)cc1NC(=O)c1ccc2nc(CCO)ccc2c1 [Example 75, N-(5-(2,3-dihydrobenzo[b][1,4]dioxine-6-carboxamido)-2-methylphenyl)-2-(2-hydroxyethyl)quinoline-6-carboxamide]	–	7.77	7.25	–
Cc1ccc2cc(C(=O)Nc3cc(NC(=O)c4ccc5c(c4)OCCO5)ccc3C(F)(F)F)ccc2n1 [Example 129, N-(5-(2,3-dihydrobenzo[b][1,4]dioxine-6-carboxamido)-2-(trifluoromethyl)phenyl)-2-methylquinoline-6-carboxamide]	–	6.46	6.79	–
CNCCCOc1ccc2cc(C(=O)Nc3cc(NC(=O)c4ccc5c(c4)OCCO5)ccc3C)ccc2n1 [Example 76, N-(5-(2,3-dihydrobenzo[b][1,4]dioxine-6-carboxamido)-2-methylphenyl)-2-(3-(methylamino)propoxy)quinoline-6-carboxamide]	–	7.68	8.00	–
CCc1ccc(NC(=O)c2ccc3c(c2)OCCO3)cc1NC(=O)c1ccc2ncccc2c1 [Example 133, N-(5-(2,3-dihydrobenzo[b][1,4]dioxine-6-carboxamido)-2-ethylphenyl)quinoline-6-carboxamide]	–	6.90	6.95	–
Cc1ccc(NC(=O)c2ccc3c(c2)OCCO3)cc1NC(=O)c1ccc2nc(OCCN3CCCCC3)ccc2c1 [Example 54, N-(5-(2,3-dihydrobenzo[b][1,4]dioxine-6-carboxamido)-2-methylphenyl)-2-(2-(piperidin-1-yl)ethoxy)quinoline-6-carboxamide]	–	8.00	8.15	–
Cc1ccc(NC(=O)c2ccc3c(c2)OCCO3)cc1NC(=O)c1ccc2c(c1)CS(=O)(=O)N2C [Example 168, N-(5-(2,3-dihydrobenzo[b][1,4]dioxine-6-carboxamido)-2-methylphenyl)-1-methyl-1,3-dihydrobenzo[c]isothiazole-5-carboxamide 2,2-dioxide]	–	7.85	7.72	–
Cc1ccc(NC(=O)c2ccc3c(c2)OCCO3)cc1NC(=O)c1ccc2occc2c1 [Example 17, N-(3-(benzofuran-5-carboxamido)-4-methylphenyl)-2,3-dihydrobenzo[b][1,4]dioxine-6-carboxamide]	–	7.01	7.14	–
COc1ccc(C(=O)Nc2cc(NC(=O)c3ccc4c(c3)OCCO4)ccc2C)cc1C [Example 26, N-(3-(4-methoxy-3-methylbenzamido)-4-methylphenyl)-2,3-dihydrobenzo[b][1,4]dioxine-6-carboxamide]	–	6.58	7.15	–
N-(5-(2,3-dihydrobenzo[b][1,4]dioxine-6-carboxamido)-2-methylphenyl)-34(2-methoxyethyl)amino)-2-(2-(pyrrolidin-1-yl)ethoxy)quinoline-6-carboxamide [Example 150]	–	–	–	pIC50 [2]: 7.01; pIC50 [3]: 7.07
Cc1ccc(NC(=O)c2ccc3c(c2)OCCO3)cc1NC(=O)c1ccc2c(c1)CC(C)O2 (stereo not drawn) [Example 14, N-(4-methyl-3-(2-methyl-2,3-dihydrobenzofuran-5-carboxamido)phenyl)-2,3-dihydrobenzo[b][1,4]dioxine-6-carboxamide]	–	7.09	7.03	–
